Assays:
Euprymna scolopes = conditions: squid light organ; cited from earlier work
[1] = test system: isolated lymphoid follicles (ILFs); assay: ILFs in SPF mice treated from birth with antibiotics in drinking water; type: in vivo; conditions: antibiotic in drinking water
Experimental: Antibodies, fusion proteins and antibiotics. Purified anti-CD11c (HL3) was purchased from BD Biosciences, phycoerythrin (PE)-, allophycocyanin (APC)- or biotin-conjugated anti-CD45R/B220 (RA3-6B2), and anti-CD45.2 (104) were purchased from eBiosciences, and purified anti-GFP (A-11122) and FITC-conjugated anti-rabbit polyclonal were purchased from Invitrogen. Neutralizing anti-CCL20 (114906) antibody was purchased from R&D Systems and 50-100 μg was injected i.p. in PBS twice a week. Human IgG1 and LTβR-Ig fusion protein have been previously described ^12; 100 μg protein was injected i.p. into pregnant mice 14.5 and 16.5 days after conception, or 50 μg protein was injected i.p. into newborn mice 1 day, 6 days and 12 days after birth, then 100 μg 15 days after birth. Vancomycin and colistin were purchased from Sigma and supplied to mice in the drinking water at a concentration of 500 mg/l and 1 g/l, respectively.
Immunofluorescence histology. […] Slides were examined under an Axiolmager M1 fluorescence microscope (Zeiss) equipped with a CCD camera and images were processed with AxioVision software (Zeiss). For the quantification of CPs and ILFs, 10-20 sections were cut at regular intervals through the whole thickness of flat ileal or colonic fragments of 2 cm in length and stained. CPs and ILFs were then counted under a fluorescence microscope.

[2] = test system: isolated lymphoid follicles (ILFs); assay: ILF formation in germfree mice given peptidoglycans in the drinking water; type: in vivo
Experimental: Peptidoglycans. Peptidoglycan were purified from E. coli strain MC1061 as previously described ^32. Highly purified PGN (total of 100 mg) was digested with mutanolysin (Sigma) ^33 to generate the entire range of muropeptides present in E. coli PGN (Supplementary FIG. 3b). Soluble muropeptides were separated by reverse phase HPLC, and the N-acetylglucosamyl-β1,4-N-acetylmuramyl-L-alanyl-D-γ-glytamyl-meso-diaminopimelate-D-alanine (GMtetraDAP) was collected and purity tested by a new HPLC analysis (Supplementary FIG. 3b). The nature of the GMtetraDAP was confirmed by MALDI-TOF mass spectrometry analysis as previously described ^33. Muramyldipeptide (MDP) was purchased from Sigma. Mice received MDP or GMtetraDAP in drinking water at a fixed concentration of 1 μM from the age of 2 weeks (Experiment I) or form birth (experiment II) for different periods of time.
Immunofluorescence histology. Intestines were opened and washed several times in PBS before fixation overnight at 4° C. in a fresh solution of 4% paraformaldehyde (Sigma) in PBS. The samples were then washed 1 day in PBS, incubated in a solution of 30% sucrose (Sigma) in PBS until the samples sank, embedded in OCT compound 4583 (Sakura Finetek), frozen in a bath of isopentane cooled with liquid nitrogen and stocked at −80° C. Frozen blocs were cut at 8 μm thickness and sections collected onto Superfrost/Plus slides (VWR). Slides were dried 1 hour and processed for staining, or stocked at −80° C. For staining, slides were first hydrated in PBS-XG, (PBS containing 0.1% triton X-100 and 1% normal bovine serum, VWR) for 5 min and blocked with 10% bovine serum in PBS-XG for 1 hour at room temperature. […] Slides were examined under an Axiolmager M1 fluorescence microscope (Zeiss) equipped with a CCD camera and images were processed with AxioVision software (Zeiss). For the quantification of CPs and ILFs, 10-20 sections were cut at regular intervals through the whole thickness of flat ileal or colonic fragments of 2 cm in length and stained. CPs and ILFs were then counted under a fluorescence microscope.

[3] = test system: isolated lymphoid follicles (ILFs); assay: ILF formation in germfree mice reconstituted with bacteria; type: in vivo; conditions: adult germfree mice reconstituted, 8 weeks
Experimental: Bacterial strains and culture. ASF bacteria include the Gram^+Clostridium propionicum (ASF 356), Lactobacillus acidophilus (ASF 360), Lactobacillus murinus (ASF 361), Eubacterium plexicaudatum (ASF 492), Firmicutes sp. (ASF 500) and Clostridium sp. (ASF 502), the Gram^−Mucispirillum schaedleri (ASF 457) and Bacteroides distasonis (ASF 519) (Supplementary FIG. 2) ^13,34, and were obtained from Taconic. The bacteria were cultured in anaerobic conditions on Schaedler agar (Difco laboratories) supplemented with 5% sterile sheep blood (Biorad) in an anaerobic Glove chamber containing a 5% CO2, 10% H2 and 85% N2 atmosphere (Jacomex). The media were pre-reduced by placing them inside the chamber 2 days prior to inoculation of bacteria. Cultures were incubated in the chamber at 37° C. for different periods of time (1-5 days) depending on the bacterial strain. […]
Bacterial colonization of germfree mice. […] Fecal pellets from inoculated mice were assessed for colonization by microscopic examination of smears and quantified by serial dilutions of stool spread on Schaedler agar plates or by quantitative PCR (qPCR). […] Mice were colonized to similar levels by strains MC1061 and MHD79 (˜2.5×10^9 cfu/g of feces) and analyzed 8 weeks after bacterial reconstitution. […]

tracheal cytotoxin [TCT]
hemocyte infiltration of crypts, epithelial apoptosis and morphogenesis (Euprymna scolopes): recapitulated by TCT alone

colistin
formation of ILFs [1]: formed few ILFs

CN[C@H](CC(C)C)C(=O)N[C@H]1C(=O)N[C@@H](CC(N)=O)C(=O)N[C@H]2C(=O)N[C@H]3C(=O)N[C@H](C(=O)N[C@H](C(=O)O)c4cc(O)cc(O)c4-c4cc3ccc4O)[C@H](O)c3ccc(c(Cl)c3)Oc3cc2cc(c3O[C@@H]2O[C@H](CO)[C@@H](O)[C@H](O)[C@H]2O[C@H]2C[C@](C)(N)[C@H](O)[C@H](C)O2)Oc2ccc(cc2Cl)[C@H]1O [vancomycin, Vancomycin]
formation of ILFs [1]: formed significant numbers of ILFs, but lower numbers than in control mice

CC(=O)N[C@H]1[C@H](O[C@H]2[C@H](O[C@H](C)C(=O)N[C@@H](C)C(=O)N[C@H](CCC(=O)N[C@@H](CCC[C@@H](N)C(=O)O)C(=O)N[C@H](C)C(=O)O)C(=O)O)[C@@H](NC(C)=O)C(O)O[C@@H]2CO)O[C@H](CO)[C@@H](O)[C@@H]1O (stereo partly drawn) [GMtetraDAP, N-acetylglucosamyl-β1,4-N-acetylmuramyl-L-alanyl-D-γ-glytamyl-meso-diaminopimelate-D-alanine]
ILFs in sections from the ileum (histology) ([2]; 8 weeks old germ free mice, in drinking water from birth): ILFs were numerous and showed some level of follicular organization
ILFs in the colon ([2]; germfree mice, 1 μM in drinking water, 10 weeks of treatment starting from birth (Experiment II)): Significant numbers of ILFs were also detected
induction of ILFs in the ileum ([2]; germfree mice, 1 μM in drinking water, after 6 weeks of treatment): induced a significant number of ILFs, mostly iILFs

Lactobacillus acidophilus
induction of ileal and colonic ILFs [3]: induced no or few ILFs

— US9050320B2, “Method for inducing lymphoid tissue and modulating intestinal homeostasis” (Institut Pasteur, priority 2009, dated 2015)
